Experimental findings from PubChem BioAssay (NCI) are described below.

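Results reflect a 48-hour exposure of cells in 96-well plates to compound at five concentrations. At the GI50, growth is halved. TGI is the concentration that stops growth completely.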

Experiment in all cases: NCI tumour cell line growth inhibition, 48 h
Assay [1] relates to HCC-2998 colon.
Assay [2] has as its system NCI-H23 lung.
In assay [3] the test system is SR leukemia.
For assay [4], the system named is OVCAR-3 ovarian.
The subject of assay [5] is CCRF-CEM leukemia.
In assay [6] the test system is U251 CNS.
Assay [7] has as its system NCI-H226 lung.
The subject of assay [8] is SN12C renal.
Assay [9] deals with HOP-62 NSCLC.
In assay [10] the test system is CAKI-1 renal.

Take `CC(=O)Nc1ccc(C(=O)NN2C(=O)C(Cl)C2c2ccc(Cl)cc2)cc1` (stereo unspecified): the TGI in [1] was greater than 100 µM; in [2] it was greater than 100 µM; in assay [3], greater than 100 µM; in [4], 52.3 µM; in assay [5] it was greater than 100 µM; in assay [6] it was greater than 56.7 µM. Moreover, the results for the TGI in [7], in assay [8] and in assay [9] were greater than 92.1 µM, greater than 100 µM and 57.8 µM, respectively.

With `CC(C)=CCCC(C)c1ccc(C)c2c1OCN(CC1CCNCC1)C2` (stereo unspecified), the GI50 is 3.74 µM in assay [1]; 15.7 µM in assay [2]; 2.79 µM in [3]; 15.6 µM in assay [4]; 2.75 µM in [6]; 17.7 µM in assay [7]. Also, the GI50 in assay [10] is 17.7 µM; in [8], 14.2 µM; in assay [9], 14.8 µM. In addition, the TGI in assay [1] was found to be 12.3 µM; in assay [2] it was 33.6 µM; in assay [3] it was 9.83 µM; in [4], 31.1 µM; in assay [6] it was 7.61 µM; in assay [7], 33.8 µM. In addition, the TGI in assay [10] came out at 36.8 µM; in assay [8] it was 28.9 µM; in assay [9], 28.7 µM.

Take `CCN(CC)CC(O)CNc1ccc(NCC2CO2)c2c1C(=O)c1ccccc1C2=O` (stereo unspecified): the GI50 in assay [1] is 0.587 µM; in assay [2], 0.26 µM; in [3], 0.0346 µM; in assay [4], 0.299 µM; in assay [6], 0.373 µM; in assay [7], 0.958 µM. Also, the GI50 in [10] is 0.757 µM; in [8], 0.177 µM; in assay [9], 0.297 µM. Besides, the TGI was 2.77 µM in assay [1]; 5.2 µM in assay [2]; 2.69 µM in assay [4]; 19.6 µM in assay [6]; 3.21 µM in assay [7]; 2.59 µM in assay [10]. For the same molecule, the TGI in [8] turned out to be 0.899 µM; in [9] it was 4.02 µM.

Take `CSc1nc(C)c2c(n1)SCC2`: the TGI in assay [2], in assay [3], in [4], in assay [5], in [6] and in assay [7] was greater than 10 µM throughout. Moreover, the TGI in assay [10], in assay [8] and in assay [9] was greater than 10 µM in each case.

With `O=S(=O)(N/N=C/c1ccc(/C=N/NS(=O)(=O)c2ccccc2)cc1)c1ccccc1`, the TGI in assay [1] was greater than 100 µM; in assay [2], 66.8 µM; in assay [3] it was greater than 100 µM; in assay [4] it was greater than 100 µM; in [5], 90.2 µM; in assay [6] it was greater than 100 µM. The TGI in [7], in assay [8] and in assay [9] was greater than 100 µM throughout.

With `CC1C[C@@]2(c3ccccc3)C(=O)CCC[C@H]2N1` (stereo partly specified), the TGI in [2], in assay [3], in [4], in [5], in assay [6] and in assay [7] was greater than 100 µM each time. The TGI in assay [10], in assay [8] and in assay [9] was greater than 100 µM each time.

In the case of `C=CC1(C(=O)O)CCC(C(C)(C)C)CC1` (stereo unspecified), the TGI in assay [1], in assay [2], in [3], in assay [4], in [6] and in assay [7] was greater than 100 µM in each case. For the same molecule, the TGI in assay [10], in assay [8] and in [9] was greater than 100 µM throughout.

For `COc1cc2c(cc1OCCCOc1cc3c(cc1OC)C(=O)N1C[C@H](F)C[C@H]1C=N3)N=C[C@@H]1C[C@@H](F)CN1C2=O`, the GI50 in assay [2] was 5.83 µM; in assay [3], 1.54 µM; in assay [4], 9.75 µM; in [5], 3.8 µM; in assay [6] it was 1.96 µM; in [10] it was 4.83 µM. The results for the GI50 in [8] and in [9] were 5.6 µM and 6.2 µM, respectively. The TGI in assay [2] was 17.8 µM; in [3] it was 6.38 µM; in assay [4] it was 26 µM; in assay [5], 51.7 µM; in assay [6] it was 4.46 µM; in assay [10], 17.6 µM. Further, the TGI worked out at 19.2 µM in assay [8] and 19.3 µM in assay [9].

As for `CC(=O)OCC1OC(N2C(=O)C(=O)c3cc(C)ccc32)C(OC(C)=O)C(OC(C)=O)C1OC(C)=O` (stereo unspecified), the TGI is greater than 100 µM in assay [2]; 41.4 µM in [3]; greater than 100 µM in [4]; greater than 100 µM in [5]; greater than 100 µM in [6]; greater than 100 µM in [7]. Moreover, the TGI in assay [10], in assay [8] and in assay [9] was greater than 100 µM in each case.

As to `COc1cc(OC)cc(C2CC(=O)Nc3c2c(C)nn3-c2nc3ccccc3[nH]2)c1` (stereo unspecified), the GI50 in assay [1] was 3.7 µM; in assay [2], 2.79 µM; in assay [4], 2.3 µM; in assay [5], 0.792 µM; in assay [6], 2.99 µM; in [7] it was 2.52 µM. Moreover, the GI50 was 3.36 µM in assay [10], 3.46 µM in [8] and 2.65 µM in [9]. In addition, the TGI was 56.5 µM in [1]; 7.73 µM in [2]; 5.02 µM in [4]; greater than 100 µM in [5]; 9.57 µM in assay [6]; 6.38 µM in assay [7]. In addition, the TGI in assay [10] was 11 µM; in [8] it was greater than 100 µM; in [9] it was 6.62 µM.

For the molecule `O=C1c2ccccc2-c2c1c1ccccc1c(=O)n2CCCNCCCn1ccnc1`, the GI50 was 0.894 µM in assay [1]; 0.411 µM in assay [2]; 1.63 µM in [4]; 0.246 µM in assay [5]; 0.285 µM in assay [6]; 0.186 µM in assay [7]. The figures for the GI50 in assay [10], in assay [8] and in assay [9] were 0.446 µM, 0.367 µM and 0.29 µM, respectively. Besides, the TGI in [1] was determined as 2.38 µM; in assay [2], 1.53 µM; in assay [4], 6.48 µM; in assay [5], 1.71 µM; in assay [6], 1.42 µM; in assay [7] it was 0.436 µM. The TGI in [10] was 2.95 µM; in assay [8] it was 1.29 µM; in [9], 1.13 µM.
